Experimental data: PubChem BioAssay AID248 (DTP/NCI, 2004)
“And” between values parts separate entries of the source, which are not always exact repeats. Equal values may be shown once. Inconclusive results and toxic doses are left out.

Test system: L1210 leukemia ip in BDF1 mice, survival T/C
Assay: NCI In Vivo Anticancer Drug Screen. Data for tumor model L1210 Leukemia (intraperitoneal) in B6D2F1 (BDF1) mice
Settings: endpoint: mean survival time, higher = longer survival
Summary of the method: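 Ratio derived from survival: compound-dosed mice over vehicle-dosed mice, all bearing a transplantable tumor.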

[1] = dose: 100.0 mg/kg/injection, schedule: Q01DX001 (ip), vehicle: saline with Tween-80
[2] = dose: 100.0 mg/kg/injection, schedule: Q01DX009 (ip), vehicle: saline with Tween-80
[3] = dose: 200.0 mg/kg/injection, schedule: Q01DX001 (ip), vehicle: saline with Tween-80
[4] = dose: 200.0 mg/kg/injection, schedule: Q01DX009 (ip), vehicle: saline with Tween-80
[5] = dose: 400.0 mg/kg/injection, schedule: Q01DX001 (ip), vehicle: saline with Tween-80
[6] = dose: 400.0 mg/kg/injection, schedule: Q01DX009 (ip), vehicle: saline with Tween-80
[7] = dose: 100.0 mg/kg/injection, schedule: Q01DX001 (ip), vehicle: saline
[8] = dose: 200.0 mg/kg/injection, schedule: Q01DX001 (ip), vehicle: saline
[9] = dose: 400.0 mg/kg/injection, schedule: Q01DX001 (ip), vehicle: saline
[10] = dose: 100.0 mg/kg/injection, schedule: Q04DX003 (ip), vehicle: Klucel (hydroxypropylcellulose) (HPC)
[11] = dose: 200.0 mg/kg/injection, schedule: Q04DX003 (ip), vehicle: Klucel (hydroxypropylcellulose) (HPC)
[12] = dose: 400.0 mg/kg/injection, schedule: Q04DX003 (ip), vehicle: Klucel (hydroxypropylcellulose) (HPC)
[13] = dose: 50.0 mg/kg/injection, schedule: Q01DX001 (ip), vehicle: carboxymethylcellulose (CMC)
[14] = dose: 100.0 mg/kg/injection, schedule: Q01DX001 (ip), vehicle: carboxymethylcellulose (CMC)
[15] = dose: 200.0 mg/kg/injection, schedule: Q01DX001 (ip), vehicle: carboxymethylcellulose (CMC)
[16] = dose: 400.0 mg/kg/injection, schedule: Q01DX001 (ip), vehicle: carboxymethylcellulose (CMC)

## CC(=O)C(C[CH2][Hg][Cl])C(C)=O
dose: 9.37 mg/kg/injection, schedule: Q01DX001 (ip), vehicle: other
  T/C: 96 % of control
dose: 18.75 mg/kg/injection, schedule: Q01DX001 (ip), vehicle: other
  T/C: 97 % of control
dose: 37.5 mg/kg/injection, schedule: Q01DX001 (ip), vehicle: other
  T/C: 100 % of control

## Cc1cc(C)cc(CCc2cc(C)cc(C)c2)c1
[1]
  T/C: 95 % of control
[2]
  T/C: 88 % of control
[3]
  T/C: 94 % of control
[4]
  T/C: 95 % of control
[5]
  T/C: 89 % of control
[6]
  T/C: 95 % of control

## COc1ncnc(=O)[nH]1
[7]
  T/C: 97 % of control
[8]
  T/C: 98 % of control
[9]
  T/C: 97 % of control

## CCOC(=O)C(C)Nc1ccccc1 (stereo unspecified)
dose: 100.0 mg/kg/injection, schedule: Q01DX009 (ip), vehicle: Klucel (hydroxypropylcellulose) (HPC)
  T/C: 100 % of control
[10]
  T/C: 103 % of control
dose: 200.0 mg/kg/injection, schedule: Q01DX009 (ip), vehicle: Klucel (hydroxypropylcellulose) (HPC)
  T/C: 104 % of control
[11]
  T/C: 118 % of control
dose: 400.0 mg/kg/injection, schedule: Q01DX009 (ip), vehicle: Klucel (hydroxypropylcellulose) (HPC)
  T/C: 98 % of control
[12]
  T/C: 98 % of control

## NC(CO)C(O)c1ccc(N=Nc2ccc(O)cc2)cc1 (stereo unspecified)
dose: 100.0 mg/kg/injection, schedule: Q04DX003 (ip), vehicle: saline with Tween-80
  T/C: 90 % of control

## O=C1c2ccccc2C(=O)c2c1c(O)c1ccccc1c2O
dose: 100.0 mg/kg/injection, schedule: Q#A X Z (im), vehicle: other
  T/C: 96 % of control
dose: 100.0 mg/kg/injection, schedule: Q#A X Z (ip), vehicle: other
  T/C: 107 % of control
dose: 100.0 mg/kg/injection, schedule: Q#A X Z (sc), vehicle: other
  T/C: 100 % of control
dose: 200.0 mg/kg/injection, schedule: Q#A X Z (im), vehicle: other
  T/C: 97 % of control
dose: 200.0 mg/kg/injection, schedule: Q#A X Z (ip), vehicle: other
  T/C: 96 % of control
dose: 200.0 mg/kg/injection, schedule: Q#A X Z (sc), vehicle: other
  T/C: 107 % of control
dose: 300.0 mg/kg/injection, schedule: Q#A X Z (im), vehicle: other
  T/C: 94 % of control
dose: 300.0 mg/kg/injection, schedule: Q#A X Z (ip), vehicle: other
  T/C: 92 % of control
dose: 300.0 mg/kg/injection, schedule: Q#A X Z (sc), vehicle: other
  T/C: 97 % of control
dose: 400.0 mg/kg/injection, schedule: Q#A X Z (im), vehicle: other
  T/C: 94 % of control
dose: 400.0 mg/kg/injection, schedule: Q#A X Z (ip), vehicle: other
  T/C: 92 % of control
dose: 400.0 mg/kg/injection, schedule: Q#A X Z (sc), vehicle: other
  T/C: 96 % of control
dose: 500.0 mg/kg/injection, schedule: Q#A X Z (oral), vehicle: other
  T/C: 96 % of control
dose: 750.0 mg/kg/injection, schedule: Q#A X Z (oral), vehicle: other
  T/C: 100 % of control

## COc1cc(N(CCC#N)CCC#N)nc(OC)n1
dose: 50.0 mg/kg/injection, schedule: Q01DX009 (ip), vehicle: saline with Tween-80
  T/C: 96 % of control
[2]
  T/C: 92 % of control
[4]
  T/C: 92 % of control

## Nc1cc2ccccc2c(O)c1O
dose: 100.0 mg/kg/injection, schedule: Q04DX003 (ip), vehicle: saline sonified
  T/C: 93 % of control
dose: 200.0 mg/kg/injection, schedule: Q04DX003 (ip), vehicle: saline sonified
  T/C: 96 % of control
dose: 400.0 mg/kg/injection, schedule: Q04DX003 (ip), vehicle: saline sonified
  T/C: 90 % of control

## CCC(C)C(N)C(=O)O (stereo unspecified)
[10]
  T/C: 103 % of control
[11]
  T/C: 106 % of control
[12]
  T/C: 101 % of control

## CCN(CC)CCOC(=O)C(O)(c1ccccc1)c1ccccc1
dose: 25.0 mg/kg/injection, schedule: Q04DX002 (ip), vehicle: saline
  T/C: 101 % of control
dose: 50.0 mg/kg/injection, schedule: Q04DX002 (ip), vehicle: saline
  T/C: 93 % of control
dose: 100.0 mg/kg/injection, schedule: Q04DX002 (ip), vehicle: saline
  T/C: 93 % of control and 115 % of control

## C=CC1C[N+]2(SS(=O)(=O)O)CCC1CC2C(O)c1ccnc2ccc(OC)cc12 (stereo unspecified)
dose: 18.8 mg/kg/injection, schedule: Q01DX009 (ip), vehicle: saline
  T/C: 91 % of control
dose: 37.5 mg/kg/injection, schedule: Q01DX009 (ip), vehicle: saline
  T/C: 94 % of control
dose: 75.0 mg/kg/injection, schedule: Q01DX009 (ip), vehicle: saline
  T/C: 88 % of control

## Nc1nnnn1-c1ccc(O)cc1
[1]
  T/C: 101 % of control
[3]
  T/C: 103 % of control
[5]
  T/C: 99 % of control

## S=C(N/N=C\c1ccc(Cl)cc1Cl)Nc1ccc2cn[nH]c2c1
[13]
  T/C: 102 % of control
[14]
  T/C: 98 % of control
[15]
  T/C: 86 % of control
[16]
  T/C: 91 % of control

## CCOC(=O)C(=O)CC(=O)/C=C/c1ccccc1
[2]
  T/C: 96 % of control
[10]
  T/C: 101 % of control
[4]
  T/C: 101 % of control
[11]
  T/C: 98 % of control
[6]
  T/C: 98 % of control
[12]
  T/C: 101 % of control

## O=NN(CCCl)C(=O)Nc1c[nH]c(=O)[nH]c1=O
dose: 0.75 mg/kg/injection, schedule: Q01DX Z (ip), vehicle: carboxymethylcellulose (CMC)
  T/C: 200 % of control
dose: 1.0 mg/kg/injection, schedule: Q01DX Z (ip), vehicle: carboxymethylcellulose (CMC)
  T/C: 177 % of control
dose: 1.5 mg/kg/injection, schedule: Q01DX Z (ip), vehicle: carboxymethylcellulose (CMC)
  T/C: 185 % of control
dose: 2.0 mg/kg/injection, schedule: Q01DX Z (ip), vehicle: carboxymethylcellulose (CMC)
  T/C: 192 % of control
dose: 3.0 mg/kg/injection, schedule: Q01DX Z (ip), vehicle: carboxymethylcellulose (CMC)
  T/C: 210 % of control and 212 % of control
dose: 6.0 mg/kg/injection, schedule: Q01DX Z (ip), vehicle: carboxymethylcellulose (CMC)
  T/C: 189 % of control
dose: 18.0 mg/kg/injection, schedule: Q01DX Z (ip), vehicle: carboxymethylcellulose (CMC)
  T/C: 110 % of control
dose: 20.0 mg/kg/injection, schedule: Q01DX001 (ip), vehicle: carboxymethylcellulose (CMC)
  T/C: 205 % of control
dose: 31.0 mg/kg/injection, schedule: Q01DX001 (ip), vehicle: carboxymethylcellulose (CMC)
  T/C: 155 % of control
dose: 40.0 mg/kg/injection, schedule: Q01DX001 (ip), vehicle: carboxymethylcellulose (CMC)
  T/C: 288 % of control
[13]
  T/C: 229 % of control
dose: 62.0 mg/kg/injection, schedule: Q01DX001 (ip), vehicle: carboxymethylcellulose (CMC)
  T/C: 231 % of control
dose: 80.0 mg/kg/injection, schedule: Q01DX001 (ip), vehicle: carboxymethylcellulose (CMC)
  T/C: 174 % of control
dose: 125.0 mg/kg/injection, schedule: Q01DX001 (ip), vehicle: carboxymethylcellulose (CMC)
  T/C: 89 % of control

## O=c1[nH]c(=O)n(C2CCCO2)cc1I (stereo unspecified)
[14]
  T/C: 95 % of control
[15]
  T/C: 98 % of control
[16]
  T/C: 93 % of control

## O=C(NCCSSCCNC(=O)c1ccccc1)c1ccccc1
[7]
  T/C: 92 % of control
[8]
  T/C: 96 % of control
[9]
  T/C: 100 % of control

## O=C(O)C(SC(C(=O)O)c1ccccc1)c1ccccc1 (stereo unspecified)
dose: 75.0 mg/kg/injection, schedule: Q04DX003 (ip), vehicle: saline with Tween-80
  T/C: 94 % of control
[7]
  T/C: 93 % of control
dose: 150.0 mg/kg/injection, schedule: Q04DX003 (ip), vehicle: saline with Tween-80
  T/C: 96 % of control
[8]
  T/C: 104 % of control
dose: 300.0 mg/kg/injection, schedule: Q04DX003 (ip), vehicle: saline with Tween-80
  T/C: 104 % of control
[9]
  T/C: 98 % of control

## C[C@]12CC[C@H](O)CC1=CC[C@@H]1[C@@H]2CC[C@](C)(C(=O)O)[C@H]1CC1Nc2ccccc2C1=O (stereo partly specified)
[7]
  T/C: 95 % of control
dose: 100.0 mg/kg/injection, schedule: Q04DX003 (ip), vehicle: saline
  T/C: 91 % of control
[8]
  T/C: 92 % of control and 91 % of control
dose: 200.0 mg/kg/injection, schedule: Q04DX003 (ip), vehicle: saline
  T/C: 95 % of control
[9]
  T/C: 97 % of control and 86 % of control
dose: 400.0 mg/kg/injection, schedule: Q04DX003 (ip), vehicle: saline
  T/C: 104 % of control

## CCN(CC)C(=O)Nc1cccc(OC(=O)N(C)C)c1
[2]
  T/C: 87 % of control
[4]
  T/C: 89 % of control

## CCOC(=O)C(OCc1ccccc1)(C(=O)N1CCCCCC1=O)C(C)C (stereo unspecified)
[2]
  T/C: 90 % of control
[4]
  T/C: 90 % of control
[6]
  T/C: 100 % of control

## O=C(Oc1ccc(N=Cc2ccc3c(c2)OCO3)cc1)Oc1ccc(N=Cc2ccc3c(c2)OCO3)cc1
[14]
  T/C: 96 % of control
[15]
  T/C: 95 % of control
[16]
  T/C: 93 % of control
